This is an account of results in patent US20090082368A1, “METHODS OF MODULATING NEUROTROPHIN-MEDIATED ACTIVITY” (PainCeptor Pharma Corporation, priority 2007, published 2009).

For test [1], the system named is NGF-induced ERK phosphorylation. Put plainly: Inhibition of NGF-induced Erk 1/2 phosphorylation (pERK). The test is classed as cell-based. The settings on record: Rattus norvegicus, Table 2. The protocol: This assay is useful for establishing that the compounds of the invention are functional NGF antagonists, not receptor agonists (an agonist could conceivably block NGF binding but actually activate the receptor). Erk 1/2 is a kinase activated down stream of TrkA and is a well studied member of the NGF-induced signal transduction cascade.
PC12 cells expressing TrkA and p75 are acutely exposed to 1 ng/mL NGF (15 min; 37° C.; 5% CO2) that is pre-incubated (30 min; room temperature) with or without the compounds. Cells are lysed in Laemmli sample buffer (for SDS-PAGE) or a lysis buffer containing Triton X-100 (for ELISA). Following SDS-PAGE, proteins are electroblotted onto nitrocellulose and immunoprobed for phosphorylated Erk 1 and 2. Blocking and primary antibody incubations of immunoblots are performed in Tris-buffered saline-Tween (10 mM Tris, pH 8.0, 150 mM NaCl, and 0.2% Tween 20) supplemented with 5% (w/v) bovine serum albumin (BSA); secondary antibody incubations are performed in 5% (w/v) dried skim milk powder. Immunoreactive bands are detected by chemiluminescence.
A quantitative method to detect phosphorylated Erk 1/2 by immunofluorescence is also used. Neuroscreen-1 cells are grown in a 96 well plate. NGF preincubated with or without the compounds for 30 minutes, is added to the cells for 5 minutes at 37° C. Cells are then fixed and stained with an antibody against phosphor-ERK 1/2. A fluorescently labeled secondary antibody is used to show the presence of phosphorylated ERK 1/2. Quantitative results are generated by photographing the wells with light of the appropriate wavelength, followed by software based image analysis.

Test [2] relates to NGF receptors on PC12 cells (TrkA+p75). Put plainly: NGF binding (125I-NGF) using PC12 cells. Details: species or system rat. The procedure: NGF binding was evaluated using methods familiar to those who are skilled in the art. Briefly, cells expressing one or both NGF receptors (PC12: TrkA+p75; A875: p75 alone; HEK/CHO_trkA: TrkA alone) were harvested by replacing the medium with the cell dissociation buffer (Amersham) and incubating at 37° C. for 15 min. […] For most compounds, multiple dose-response curves were generated.
The IC50 data shown in Tables A-J were acquired using the procedure described herein using PC12 cells.

A further test concerns PC12 cells. As to the kind of experiment: Inhibition of NGF-induced neurite outgrowth. It counts as cell-based. The conditions noted are these: Rattus norvegicus, PC-12, 96 h, Table 3, 4 days exposure to NGF. The protocol: This assay is run as a further functional marker of NGF antagonism and takes advantage of the differentiation of PC12 cells (neurite outgrowth) induced by NGF. Cultures of PC12 cells are grown on Terasaki plates pre-coated with poly-D-lysine. Cells are exposed to NGF (1-50 (preferably 5) ng/ml) to induce neurite outgrowth as described elsewhere [LA Greene & AS Tischler, Establishment of a noradrenergic clonal line of rat adrenal pheochromocytoma cells which respond to nerve growth factor, Proc Natl Acad Sci USA. 1976 July; 73(7): 2424-2428]. In addition to NGF, cells are exposed to varying concentration of the compounds or vehicle. Following 4 days of exposure to NGF in the presence or absence of compound, neurite outgrowth is quantified. A neurite is scored if its caliber from origin to terminal is approximately the same and the length is equal to or greater than 1.5 the cell body diameter. The number of neurite bearing cells per total number of viable cells is calculated for each condition; the number of cells with neurites in the presence of NGF (without compound exposure) is considered to represent maximal (100%) outgrowth, to which the inhibitory effect of compounds of the invention on NGF-induced outgrowth is compared.

Where [3] appears, read: Table A (Formula Ia), NGF binding, PC12 cells, read-out: IC50.
Where [4] appears, read: Table B (Formula Ib), NGF binding, PC12 cells, read-out: IC50.
[5] abbreviates: Table 3, read-out: NGF Binding Assay IC50.
The mark [6] stands for this setting: Table I (Formula VII), NGF binding, PC12 cells, read-out: IC50.
The mark [7] stands for this setting: Table 2, read-out: NGF Binding Assay IC50.
[8] abbreviates: Table J (Formula VIII), NGF binding, PC12 cells, read-out: IC50.

The pIC50 is −log10 of the IC50, conventionally taken in molar units.

pIC50: −log10 of the molar value. Read-outs that look alike come from different tables or passages of the source.

`O=C(O)CCCN1C(=O)c2ccc(-c3ccc4c(c3)C(=O)N(CCCC(=O)O)C4=O)cc2C1=O` [Compound 1C] showed a negative-log IC50 (pIC50) in test [1] of 5.30 to 7.00. For `O=C(O)CCCN1C(=O)c2ccc(C(=O)O)cc2C1=O` [Compound 1], the negative logarithm of the IC50 (pIC50) in test [2] (setting [3]) was below 4.30. On the same count and under the same terms, the result for `O=C(O)CCCCN1C(=O)c2ccc(C(=O)O)cc2C1=O` [Compound 2] reads below 4.30.

Consider `O=C(O)c1ccc(Cl)c(N2C(=O)c3ccc4c5c(ccc(c35)C2=O)C(=O)N(c2cc(C(=O)O)ccc2Cl)C4=O)c1` [Compound 3D], for which the pIC50 in the test on PC12 cells was 5.30 to 7.00. Take `O=C(O)c1cccc(N2C(=O)c3ccc(C(=O)O)cc3C2=O)c1` [Compound 3]: the pIC50 in test [2] (setting [3]) is below 4.30. Same read-out and setting: the result for `O=C(O)c1ccc2c(c1)C(=O)N(c1cc(C(=O)O)ccc1Cl)C2=O` [Compound 6] reads below 4.30. As to `N#Cc1ccc2c(c1)CN(c1cccc(C(=O)O)c1)C2=O` [Compound 8A], in test [2] (setting [4]), the pIC50 was below 4.30. In the case of `O=C(O)CCN1C(=O)c2ccc(-c3ccc4c(c3)C(=O)N(CCC(=O)O)C4=O)cc2C1=O` [Compound 9C], the pIC50 in test [1] is 4.82 to 5.30. In the case of `Nc1ccc(C(=O)O)cc1N1C(=O)c2ccc3c4c(ccc(c24)C1=O)C(=O)N(C(CCC(=O)O)C(=O)O)C3=O` (stereo not drawn) [Compound 9D], the figures for the negative logarithm of the IC50 (pIC50) (in test [1]; in the test with PC12 cells) were 4.82 to 5.30 and 5.30 to 7.00, respectively. Regarding `O=C(O)CCCCN1C(=O)c2ccc(-c3ccc4c(c3)C(=O)N(CCCCC(=O)O)C4=O)cc2C1=O` [Compound 10C], the pIC50 in test [1] is 5.30 to 7.00. On the same count and under the same terms, as for `O=C1c2ccc(-c3ccc4c(c3)C(=O)N(CCCS(=O)(=O)O)C4=O)cc2C(=O)N1CCCS(=O)(=O)O` [Compound 11C], the figure is 5.30 to 7.00. On to `O=C(O)c1cccc(N2Cc3cc(C(=O)O)ccc3C2=O)c1` [Compound 12A, 2-(3-Carboxyphenyl)-1-oxoisoindoline-5-carboxylic acid], for which the pIC50 in the test with PC12 cells was 4.82 to 5.30; in test [2] (setting [5]), 4.54 to 5.00; in test [2] (setting [4]), 4.54 to 5.00.

On to `CCOC(=O)c1cccc(N2Cc3cc(C(=O)O)ccc3C2=O)c1` [Compound 15A], for which, in test [1], the negative logarithm of the IC50 (pIC50) is 4.82 to 5.30. Turning to `CN(C)c1cc2c3c(cc(N(C)C)cc3c1)C(=O)N(CCCC(=O)O)C2=O` [Compound 15G], the negative-log IC50 (pIC50) in test [2] (setting [6]) was 4.30 to 4.52.

`CC(C)Nc1cc2c3c(cc(NC(C)C)cc3c1)C(=O)N(CCCC(=O)O)C2=O` [Compound 16G]: the pIC50 in test [2] (setting [6]) was 4.54 to 5.00.

As for `O=C(O)CCCN1C(=O)c2cc(C(=O)O)cc3cc([N+](=O)[O-])cc(c23)C1=O` [Compound 17G, 2-(3-Carboxypropyl)-8-nitro-1,3-dioxo-2,3-dihydro-1H-benzo[de]isoquinoline-5-carboxylic acid], in test [2] (setting [6]), the pIC50 was above 5.00. Same read-out and setting: as for `Nc1cc2c3c(cc(C(=O)O)cc3c1)C(=O)N(CCCC(=O)O)C2=O` [Compound 18G, 8-Amino-2-(3-carboxypropyl)-1,3-dioxo-2,3-dihydro-1H-benzo[de]isoquinoline-5-carboxylic acid], the figure is above 5.00. `O=C(O)c1ccc(Cl)c(N2C(=O)c3cccc([N+](=O)[O-])c3C2=O)c1` [Compound 18]: the pIC50 in test [2] (setting [3]) was below 4.30. Regarding `O=C(O)CCCCCN1C(=O)c2ccc(-c3ccc4c(c3)C(=O)N(CCCCCC(=O)O)C4=O)cc2C1=O` [Compound 19C], in test [1], the pIC50 is 5.30 to 7.00. On to `CC(=O)Nc1cc2c3c(cc(C(=O)O)cc3c1)C(=O)N(CCCC(=O)O)C2=O` [Compound 19G, 8-(Acetylamino)-2-(3-carboxypropyl)-1,3-dioxo-2,3-dihydro-1H-benzo[de]isoquinoline-5-carboxylic acid], for which the pIC50 in test [1] is 4.82 to 5.30; in test [2] (setting [7]), above 5.00; in test [2] (setting [6]) it was above 5.00. On to `N#Cc1cc2c3c(cc(C#N)cc3c1)C(=O)N(CCCC(=O)O)C2=O` [Compound 20G], for which the negative-log IC50 (pIC50) in test [2] (setting [6]) is above 5.00.

In the case of `O=C(O)CCCCCCN1C(=O)c2ccc(-c3ccc4c(c3)C(=O)N(CCCCCCC(=O)O)C4=O)cc2C1=O` [Compound 21C], in test [1], the negative logarithm of the IC50 (pIC50) was 4.82 to 5.30. Turning to `O=C(O)c1cccc(N2C(=O)c3cc(-n4cccc4)cc4cc(-n5cccc5)cc(c34)C2=O)c1` [Compound 21G], the pIC50 in test [2] (setting [6]) was below 4.30. `O=C(O)CCCCCCCN1C(=O)c2ccc(-c3ccc4c(c3)C(=O)N(CCCCCCCC(=O)O)C4=O)cc2C1=O` [Compound 22C] gave a negative logarithm of the IC50 (pIC50) in test [1] of 4.82 to 5.30. On the same count and under the same terms, the result for `O=C(O)CCCN1C(=O)c2ccc(-c3ccc4c(c3)C(=O)N(CCCc3nnn[nH]3)C4=O)cc2C1=O` [Compound 23C] reads 5.30 to 7.00.

Consider `O=C(O)CCCN1C(=O)c2cccc3cccc(c23)C1=O` [Compound 26G], for which, in test [2] (setting [8]), the pIC50 is below 4.30.

In the case of `O=C(O)CCCN1C(=O)c2cccc3cc([N+](=O)[O-])cc(c23)C1=O` [Compound 27G, 4-(5-Nitro-1,3-dioxo-1H-benzo[de]isoquinolin-2(3H)-yl)butanoic acid], in test [2] (setting [8]), the negative logarithm of the IC50 (pIC50) was above 5.00.

In the case of `Nc1cc2c3c(cccc3c1)C(=O)N(CCCC(=O)O)C2=O` [Compound 28G, 4-(5-Amino-1,3-dioxo-1H-benzo[de]isoquinolin-2(3H)-yl)butanoic acid], in test [2] (setting [8]), the negative-log IC50 (pIC50) was above 5.00. On the same count and under the same terms, the result for `CC(=O)Nc1cc2c3c(cccc3c1)C(=O)N(CCCC(=O)O)C2=O` [Compound 29G] reads above 5.00; that for `NC(=O)c1cc2c3c(cccc3c1)C(=O)N(CCCC(=O)O)C2=O` [Compound 30G], 4.54 to 5.00; that for `CN(C)S(=O)(=O)c1cc2c3c(cccc3c1)C(=O)N(CCCC(=O)O)C2=O` [Compound 31G], below 4.30. Turning to `N#Cc1cc2c3c(cccc3c1)C(=O)N(CCCC(=O)O)C2=O` [Compound 32G], the pIC50 was 4.82 to 5.30 in test [1]; 4.82 to 5.30 in the test with PC12 cells; above 5.00 in test [2] (setting [7]); above 5.00 in test [2] (setting [5]); above 5.00 in test [2] (setting [8]).

For the compound `O=C(O)CCCN1C(=O)c2cccc3cc(C(=O)O)cc(c23)C1=O` [Compound 33G], the negative logarithm of the IC50 (pIC50) in test [2] (setting [8]) was 4.54 to 5.00. Consider `N#Cc1ccc2c3c(cccc13)C(=O)N(CCCC(=O)O)C2=O` [Compound 34G], for which the pIC50 in test [2] (setting [8]) is 4.54 to 5.00. Same read-out and setting: as for `O=C(O)CCCN1C(=O)c2cccc3c([N+](=O)[O-])ccc(c23)C1=O` [Compound 35G], the figure is 4.54 to 5.00.

`O=C(O)CCCN1C(=O)c2cccc3c(Br)ccc(c23)C1=O` [Compound 36G]: in test [2] (setting [8]), the negative-log IC50 (pIC50) is 4.30 to 4.52. For `O=C(O)CCCN1C(=O)c2cccc3c(S(=O)(=O)O)ccc(c23)C1=O` [Compound 37G], the negative logarithm of the IC50 (pIC50) in test [2] (setting [8]) is below 4.30. Still for that read-out and setting: as for `O=C(O)CCCN1C(=O)c2cccc3c(Cl)ccc(c23)C1=O` [Compound 38G], the figure is 4.54 to 5.00; as for `O=C(O)CCCN1C(=O)c2cccc3c(C(=O)O)ccc(c23)C1=O` [Compound 39G], 4.54 to 5.00; as for `O=C(O)CCCN1C(=O)c2cccc3c(C(=O)c4ccccc4)ccc(c23)C1=O` [Compound 40G], 4.54 to 5.00. On to `O=C(O)c1ccc2c(c1)C(=O)N(CCN1C(=O)c3ccc(C(=O)O)cc3C1=O)C2=O` [Compound 41C], for which the pIC50 in test [2] (Table E (Formula IIIA), NGF binding, PC12 cells, read-out: IC50) is above 5.00.

Take `CN(C)S(=O)(=O)c1ccc2c3c(cccc13)C(=O)N(CCCC(=O)O)C2=O` [Compound 41G]: the pIC50 in test [2] (setting [8]) was above 5.00. `O=C(O)CCCN1C(=O)c2cccc3cc(-c4cccc(C(=O)O)c4)cc(c23)C1=O` [Compound 45G]: the pIC50 in test [1] was 4.60 to 4.82. Turning to `O=C(O)CCCN1C(=O)c2cccc3cc(-c4nnn[nH]4)cc(c23)C1=O` [Compound 46G], the negative logarithm of the IC50 (pIC50) (in test [1]; in the test on PC12 cells) was 4.82 to 5.30 in each case.
